From ChEMBL document CHEMBL1201862, “PubChem BioAssay data set” (2004)
Activity calls are given as the source filed them.

Legend:
Beta-galactosidase = Beta-galactosidase (Escherichia coli, UniProt Q8VNN2); test: PubChem AID 485352; format: functional
[1] = inhibitors of intracellular T. cruzi replication, confirmation, NIH3T3 host cells, beta-gal luminescence (AID 2044); format: functional, cell-based;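 also: intracellular parasites grown in NIH/3T3 mouse fibroblasts as host cells; luminescent beta-galactosidase reporter signal from transgenic T. cruzi replicating inside host cells; inhibitors lower the luminescence signal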
[2] = target: T1, Type-1 angiotensin II receptor (Homo sapiens, UniProt P30556); test: AT1 receptor antagonists, dose response, selectivity assay for APJ receptor antagonist project, cell-based, uHTS hits (AID 463214); format: functional;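 also: antagonist potency against angiotensin II stimulated AT1 response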
T1 sequence (P30556 whole entry): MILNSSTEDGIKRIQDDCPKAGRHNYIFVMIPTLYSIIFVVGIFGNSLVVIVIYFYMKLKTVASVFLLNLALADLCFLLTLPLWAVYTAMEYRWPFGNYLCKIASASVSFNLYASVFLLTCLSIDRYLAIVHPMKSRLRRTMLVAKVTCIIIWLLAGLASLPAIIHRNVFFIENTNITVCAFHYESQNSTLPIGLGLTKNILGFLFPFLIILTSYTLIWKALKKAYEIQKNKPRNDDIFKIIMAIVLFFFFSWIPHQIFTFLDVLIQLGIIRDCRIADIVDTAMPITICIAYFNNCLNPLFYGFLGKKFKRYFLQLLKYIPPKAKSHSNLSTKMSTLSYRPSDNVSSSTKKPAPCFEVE

[3] = cytotoxicity toward NIH3T3 fibroblasts, dose response, counter-screen, cell-based, ATP luminescence, mouse fibroblasts (AID 2010); format: functional;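 also: cells exposed to compound for about 90 hours before reading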
[4] = target: T2, Corticotropin-releasing factor receptor 2/Corticotropin-releasing factor-binding protein (Homo sapiens, UniProt P24387+Q13324); test: activators of CRF receptor 2 with binding protein – uHTS hits, confirmation (AID 602473); format: functional; details: read-out: EC50_Mean
T2 sequence (Q13324 whole entry): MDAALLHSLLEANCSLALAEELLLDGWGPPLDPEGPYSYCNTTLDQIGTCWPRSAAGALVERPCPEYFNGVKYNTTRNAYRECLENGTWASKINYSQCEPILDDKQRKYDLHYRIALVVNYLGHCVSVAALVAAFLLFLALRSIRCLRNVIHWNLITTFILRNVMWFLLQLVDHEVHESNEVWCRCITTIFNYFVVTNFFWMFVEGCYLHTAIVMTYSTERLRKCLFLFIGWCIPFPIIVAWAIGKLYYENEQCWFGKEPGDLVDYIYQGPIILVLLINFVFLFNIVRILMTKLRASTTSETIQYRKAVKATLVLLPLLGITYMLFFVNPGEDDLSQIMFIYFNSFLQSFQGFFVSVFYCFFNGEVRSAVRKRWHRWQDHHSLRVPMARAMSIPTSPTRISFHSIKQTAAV
T2 sequence (P24387 whole entry): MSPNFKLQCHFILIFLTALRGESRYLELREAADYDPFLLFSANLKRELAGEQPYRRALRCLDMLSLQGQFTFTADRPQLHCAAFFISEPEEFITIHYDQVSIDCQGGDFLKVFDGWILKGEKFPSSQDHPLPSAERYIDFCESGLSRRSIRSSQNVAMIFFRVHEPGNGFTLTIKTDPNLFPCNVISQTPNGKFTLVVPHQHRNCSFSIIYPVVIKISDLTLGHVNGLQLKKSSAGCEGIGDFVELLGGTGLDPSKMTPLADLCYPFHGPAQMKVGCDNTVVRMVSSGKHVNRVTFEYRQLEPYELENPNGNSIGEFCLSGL

[5] = Luminescence Cell-Based Dose Retest to Confirm Inhibitors of Cancer Stem Cells. [Related pubchem assays (depositor defined):AID2717, AID2721]; format: functional; details: Homo sapiens
[6] = target: T3, Microphthalmia-associated transcription factor (Homo sapiens, UniProt O75030); test: TRPM1 promoter luciferase signal decrease, dose response, MITF inhibitor project, cell-based, SK-MEL-5, cherry-picked, set 3 (AID 493073); format: functional
T3 sequence (O75030 whole entry): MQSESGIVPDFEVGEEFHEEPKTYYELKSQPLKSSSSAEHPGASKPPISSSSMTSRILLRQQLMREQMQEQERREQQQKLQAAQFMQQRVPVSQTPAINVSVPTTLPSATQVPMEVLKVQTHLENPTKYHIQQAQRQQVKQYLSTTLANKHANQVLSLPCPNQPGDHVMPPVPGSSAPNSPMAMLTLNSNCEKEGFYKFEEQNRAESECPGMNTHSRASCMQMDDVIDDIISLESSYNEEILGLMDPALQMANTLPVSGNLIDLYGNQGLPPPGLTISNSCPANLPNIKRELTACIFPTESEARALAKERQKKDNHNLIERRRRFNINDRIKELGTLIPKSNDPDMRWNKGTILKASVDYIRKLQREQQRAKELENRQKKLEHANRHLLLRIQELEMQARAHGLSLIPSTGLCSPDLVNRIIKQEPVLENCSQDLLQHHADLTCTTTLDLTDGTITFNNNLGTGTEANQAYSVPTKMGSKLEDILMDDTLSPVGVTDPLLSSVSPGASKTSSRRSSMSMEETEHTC

CHO = test: cytotoxicity in TLR9-MyD88 CHO cells, dose response, cytotoxicity control for TLR9-MyD88 binding inhibitor project, cell-based, luminescence (AID 588339); format: functional, hamster; details: Cricetulus griseus;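 also: CHO cells stably coexpressing TLR9 and MyD88 fusions from primary screen; compound exposure lasted 48 hours before viability readout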
Beta Lactamase = Beta Lactamase (Pseudomonas aeruginosa, UniProt Q932Y6); test: beta-lactamase reporter inhibitor potency, dose response, artefact control for TLR9-MyD88 binding inhibitor project, BLA reporter cells, FRET fluorescence (AID 588341); format: cell-based;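 also: cell based assay in CHO-K1 cells stably expressing beta-lactamase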
INS1 = test: beta cell apoptosis inhibitors, cytokine rescue, dose response, luminescence, retest (AID 449756); format: functional, cell-based; details: Rattus norvegicus;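 also: cell death triggered by IL-1 beta plus TNF-alpha plus IFN-gamma mixture; protective hits raise ATP signal compared with cytokine alone wells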
[7] = Fluorescence-based cell-based high throughput dose response assay for inhibitors of the interaction of nucleotide-binding oligomerization domain containing 2 (NOD2) and the receptor-interacting serine-threonine kinase 2 (RIPK2).; format: functional; details: Homo sapiens
[8] = target: T4, Endoribonuclease toxin MazF (Escherichia coli K-12, UniProt P0AE70); test: MazF toxin RNase activators, dose response, biochemical, fluorescence, single-stranded RNA substrate, uHTS hits (AID 588481); format: functional
T4 sequence (P0AE70 whole entry): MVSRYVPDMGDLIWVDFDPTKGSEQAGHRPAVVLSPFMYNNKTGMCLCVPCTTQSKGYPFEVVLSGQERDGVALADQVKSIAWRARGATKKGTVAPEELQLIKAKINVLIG

[9] = target: T4, Endoribonuclease toxin MazF; test: fluorescent RNA oligo signal without MazF, dose response, counter-screen for MazEF activator project, biochemical, fluorescence, single-stranded RNase substrate (AID 588502); format: functional
Protein skinhead-1 = target: T5, Protein skinhead-1 (Caenorhabditis elegans, UniProt P34707); format: functional
T5 sequence (P34707 whole entry): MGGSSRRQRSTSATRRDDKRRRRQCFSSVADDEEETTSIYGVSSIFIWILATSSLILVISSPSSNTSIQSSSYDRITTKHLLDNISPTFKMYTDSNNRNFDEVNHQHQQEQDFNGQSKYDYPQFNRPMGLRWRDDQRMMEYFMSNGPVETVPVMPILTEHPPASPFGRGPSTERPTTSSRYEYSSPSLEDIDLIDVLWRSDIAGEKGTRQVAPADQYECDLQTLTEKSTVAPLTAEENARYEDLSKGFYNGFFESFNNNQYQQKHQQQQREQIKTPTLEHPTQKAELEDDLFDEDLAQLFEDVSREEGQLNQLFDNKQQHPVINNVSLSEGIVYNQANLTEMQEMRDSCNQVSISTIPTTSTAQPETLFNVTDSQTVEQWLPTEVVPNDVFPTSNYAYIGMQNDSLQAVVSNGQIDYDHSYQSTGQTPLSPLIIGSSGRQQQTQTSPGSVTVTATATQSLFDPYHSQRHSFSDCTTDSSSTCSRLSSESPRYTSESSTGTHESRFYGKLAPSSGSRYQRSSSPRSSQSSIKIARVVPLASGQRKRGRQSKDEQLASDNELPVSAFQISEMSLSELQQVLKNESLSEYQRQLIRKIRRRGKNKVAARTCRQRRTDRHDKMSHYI

Caspase-3 = target: T6, Caspase-3 (Homo sapiens, UniProt P42574); format: functional;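 also: Dose-response selectivity test against caspase-3 for candidate inhibitors of sentrin-specific proteases (SENPs)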
T6 sequence (P42574 whole entry): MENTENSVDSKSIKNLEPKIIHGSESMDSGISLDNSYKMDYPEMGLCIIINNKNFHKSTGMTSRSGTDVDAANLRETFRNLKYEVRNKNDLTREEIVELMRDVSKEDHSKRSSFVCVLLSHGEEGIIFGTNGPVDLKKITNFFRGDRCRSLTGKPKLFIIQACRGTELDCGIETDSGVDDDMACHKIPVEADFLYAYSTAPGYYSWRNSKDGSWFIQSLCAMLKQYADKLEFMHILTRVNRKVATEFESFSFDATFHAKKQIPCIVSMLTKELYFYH

[10] = target: T7, Sentrin-specific protease 7 (Homo sapiens, UniProt Q9BQF6); format: functional;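 also: Luminescence-based dose-response confirmation of ultra-high-throughput screening hits, measuring inhibition of SENP7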
T7 sequence (Q9BQF6 whole entry): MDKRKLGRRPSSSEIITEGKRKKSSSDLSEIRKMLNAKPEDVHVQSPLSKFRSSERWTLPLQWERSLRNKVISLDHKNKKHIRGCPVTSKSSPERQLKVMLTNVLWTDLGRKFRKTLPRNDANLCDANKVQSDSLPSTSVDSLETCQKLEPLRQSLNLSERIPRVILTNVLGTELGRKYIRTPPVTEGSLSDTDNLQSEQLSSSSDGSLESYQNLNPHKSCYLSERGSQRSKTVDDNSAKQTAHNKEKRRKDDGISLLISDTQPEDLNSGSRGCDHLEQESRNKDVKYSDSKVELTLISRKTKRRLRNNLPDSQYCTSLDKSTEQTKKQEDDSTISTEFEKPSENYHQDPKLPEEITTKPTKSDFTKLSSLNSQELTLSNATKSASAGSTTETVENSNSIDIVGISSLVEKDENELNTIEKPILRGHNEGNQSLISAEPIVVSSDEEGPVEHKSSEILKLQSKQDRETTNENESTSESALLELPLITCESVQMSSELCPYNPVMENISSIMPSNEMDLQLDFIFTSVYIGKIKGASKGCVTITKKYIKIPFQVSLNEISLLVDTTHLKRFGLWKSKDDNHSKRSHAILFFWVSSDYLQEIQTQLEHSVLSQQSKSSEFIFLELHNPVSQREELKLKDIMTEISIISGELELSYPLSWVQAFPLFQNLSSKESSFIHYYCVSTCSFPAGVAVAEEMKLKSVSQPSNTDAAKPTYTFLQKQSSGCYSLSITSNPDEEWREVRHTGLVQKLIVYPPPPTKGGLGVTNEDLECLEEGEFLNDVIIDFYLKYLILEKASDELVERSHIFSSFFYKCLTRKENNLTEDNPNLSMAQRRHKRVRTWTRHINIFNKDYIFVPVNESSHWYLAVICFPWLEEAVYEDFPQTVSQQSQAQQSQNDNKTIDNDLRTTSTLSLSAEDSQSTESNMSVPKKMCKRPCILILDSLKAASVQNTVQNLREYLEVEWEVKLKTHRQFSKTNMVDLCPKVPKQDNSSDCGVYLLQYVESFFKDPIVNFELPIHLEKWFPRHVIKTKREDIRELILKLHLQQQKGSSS

[11] = target: T8, Sentrin-specific protease 6 (Homo sapiens, UniProt Q9GZR1); format: functional;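 also: Luminescence-based dose-response confirmatory assay of SENP6 inhibition, following up an ultra-high-throughput screen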
T8 sequence (Q9GZR1 whole entry): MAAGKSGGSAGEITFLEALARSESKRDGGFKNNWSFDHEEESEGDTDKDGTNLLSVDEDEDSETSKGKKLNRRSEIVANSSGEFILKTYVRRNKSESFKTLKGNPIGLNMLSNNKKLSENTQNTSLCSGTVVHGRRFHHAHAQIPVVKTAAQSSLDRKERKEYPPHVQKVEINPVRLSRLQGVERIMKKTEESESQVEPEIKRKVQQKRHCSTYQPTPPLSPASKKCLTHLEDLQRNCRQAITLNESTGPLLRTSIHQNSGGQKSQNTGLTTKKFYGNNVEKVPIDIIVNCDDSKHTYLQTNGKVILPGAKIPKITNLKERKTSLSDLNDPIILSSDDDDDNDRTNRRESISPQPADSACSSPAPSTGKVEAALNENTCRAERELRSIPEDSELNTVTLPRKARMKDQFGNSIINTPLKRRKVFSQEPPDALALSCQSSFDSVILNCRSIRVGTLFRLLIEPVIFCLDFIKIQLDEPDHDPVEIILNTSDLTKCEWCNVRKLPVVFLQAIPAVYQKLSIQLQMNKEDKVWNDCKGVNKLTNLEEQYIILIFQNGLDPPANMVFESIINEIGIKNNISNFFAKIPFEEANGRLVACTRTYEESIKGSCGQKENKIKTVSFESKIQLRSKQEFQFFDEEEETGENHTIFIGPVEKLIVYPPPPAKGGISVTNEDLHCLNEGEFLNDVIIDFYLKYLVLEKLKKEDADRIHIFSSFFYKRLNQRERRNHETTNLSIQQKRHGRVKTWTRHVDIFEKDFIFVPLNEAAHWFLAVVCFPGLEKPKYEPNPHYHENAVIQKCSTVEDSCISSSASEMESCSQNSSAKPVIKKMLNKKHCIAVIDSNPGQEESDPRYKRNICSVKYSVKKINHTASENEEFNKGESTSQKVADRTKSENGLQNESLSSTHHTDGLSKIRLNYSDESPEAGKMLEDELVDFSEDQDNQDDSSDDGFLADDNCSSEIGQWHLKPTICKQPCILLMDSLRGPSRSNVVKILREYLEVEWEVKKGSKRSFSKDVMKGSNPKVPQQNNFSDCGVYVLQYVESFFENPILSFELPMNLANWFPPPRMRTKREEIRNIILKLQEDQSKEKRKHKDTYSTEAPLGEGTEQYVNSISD

[12] = target: T9, Sentrin-specific protease 8 (Homo sapiens, UniProt Q96LD8); format: functional;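 also: luminescence read-out of SENP8 inhibition, dose-response confirmation following an ultra-high-throughput screen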
T9 sequence (Q96LD8 whole entry): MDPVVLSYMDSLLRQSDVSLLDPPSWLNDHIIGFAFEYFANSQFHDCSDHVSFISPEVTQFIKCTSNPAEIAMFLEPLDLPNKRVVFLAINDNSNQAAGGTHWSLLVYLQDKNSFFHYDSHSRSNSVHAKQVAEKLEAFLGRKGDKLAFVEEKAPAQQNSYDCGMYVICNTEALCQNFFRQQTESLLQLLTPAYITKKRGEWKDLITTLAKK

Chain of Beta-galactosidase (Q8VNN2 whole entry): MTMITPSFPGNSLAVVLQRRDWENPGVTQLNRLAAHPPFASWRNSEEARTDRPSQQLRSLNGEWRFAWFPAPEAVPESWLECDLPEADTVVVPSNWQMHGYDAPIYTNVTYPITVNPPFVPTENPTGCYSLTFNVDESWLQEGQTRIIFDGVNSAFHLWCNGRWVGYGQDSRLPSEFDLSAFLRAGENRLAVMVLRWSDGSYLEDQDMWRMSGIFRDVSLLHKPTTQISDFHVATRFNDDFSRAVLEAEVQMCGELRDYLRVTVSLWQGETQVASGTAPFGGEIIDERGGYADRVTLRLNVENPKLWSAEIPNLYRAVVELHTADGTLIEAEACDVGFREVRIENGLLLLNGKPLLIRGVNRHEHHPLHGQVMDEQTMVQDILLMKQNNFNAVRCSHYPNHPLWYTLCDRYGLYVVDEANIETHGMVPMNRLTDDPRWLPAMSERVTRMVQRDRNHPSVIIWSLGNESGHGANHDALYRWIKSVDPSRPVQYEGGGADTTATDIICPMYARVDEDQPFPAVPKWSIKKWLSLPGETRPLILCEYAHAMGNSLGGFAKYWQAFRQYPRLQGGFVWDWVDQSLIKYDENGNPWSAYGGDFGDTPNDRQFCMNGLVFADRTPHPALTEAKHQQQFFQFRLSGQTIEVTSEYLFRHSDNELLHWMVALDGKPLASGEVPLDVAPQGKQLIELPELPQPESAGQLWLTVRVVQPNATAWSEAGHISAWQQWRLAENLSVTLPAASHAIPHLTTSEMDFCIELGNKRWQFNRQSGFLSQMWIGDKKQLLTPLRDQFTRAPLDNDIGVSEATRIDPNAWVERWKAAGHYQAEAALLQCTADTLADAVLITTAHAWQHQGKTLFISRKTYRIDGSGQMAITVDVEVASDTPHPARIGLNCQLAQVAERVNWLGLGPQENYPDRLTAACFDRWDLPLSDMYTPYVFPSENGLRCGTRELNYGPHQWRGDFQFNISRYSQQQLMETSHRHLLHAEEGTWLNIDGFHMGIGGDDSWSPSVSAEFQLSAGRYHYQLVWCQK
Chain of Beta Lactamase (Q932Y6 whole entry): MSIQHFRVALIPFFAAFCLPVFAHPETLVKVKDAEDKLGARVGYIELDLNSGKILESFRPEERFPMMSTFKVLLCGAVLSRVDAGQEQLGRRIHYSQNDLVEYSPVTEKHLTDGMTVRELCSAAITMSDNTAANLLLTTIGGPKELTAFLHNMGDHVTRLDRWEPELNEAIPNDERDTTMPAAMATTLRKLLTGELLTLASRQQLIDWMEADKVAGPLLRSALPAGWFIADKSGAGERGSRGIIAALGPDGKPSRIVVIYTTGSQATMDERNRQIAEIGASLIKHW

Cc1ccc(C)c2nc3sc(C(=O)N4CCCc5ccccc54)c(N)c3cc12
EC50 (Beta-galactosidase): > 40 µM (inactive) | EC50 [1]: 1.56 µM (active) | IC50 [2]: > 40 µM (not active) | EC50 [3]: > 60 µM (not active) | EC50 [4]: 8.83 µM (active)

CCn1c(=O)c([N+](=O)[O-])c(Cl)c2ccccc21
EC50 (Beta-galactosidase): > 40 µM (inactive) | EC50 [1]: 1.89 µM (active) | IC50 [2]: 2.22 µM (active) | EC50 [3]: 15 µM (active) | AC50 [5]: 1.85 µM (active) | AC50 [6]: 7.21 µM (active) | IC50 (CHO): 1.03 µM (active) | IC50 (Beta Lactamase): 28.6 µM (inactive) | AC50 (INS1): 5.02 µM (active) | IC50 [7]: 622 nM (active)

COC(=O)CSc1nc2cc(C)cc(C)c2cc1C#N
EC50 [8]: > 99 µM (inactive) | EC50 [9]: > 99 µM (inactive) | IC50 (Protein skinhead-1): > 100 µM (inactive)

Cc1ccc2oc(-c3ccccc3)nc2c1
IC50 (Caspase-3): 5.39 µM (active) | IC50 [10]: 5.32 µM (active) | IC50 [11]: 7.6 µM (active) | IC50 [12]: 39.3 µM (active)
